# Test results as given in ChEMBL document CHEMBL5465560, “Selectivity Literature for EUbOPEN Chemogenomic Library” (2024).
# Key:
# [1] = molecular target: T1, Myosin-IIIb (Homo sapiens) (UniProt Q8WXR4); test: Selectivity interaction (Ambit KINOMEscan and KiNATiv profiling in Jurkat cells) EUB0000090b MYO3B; format: cell-based; conditions: at 1 µM
# T1 sequence (whole entry): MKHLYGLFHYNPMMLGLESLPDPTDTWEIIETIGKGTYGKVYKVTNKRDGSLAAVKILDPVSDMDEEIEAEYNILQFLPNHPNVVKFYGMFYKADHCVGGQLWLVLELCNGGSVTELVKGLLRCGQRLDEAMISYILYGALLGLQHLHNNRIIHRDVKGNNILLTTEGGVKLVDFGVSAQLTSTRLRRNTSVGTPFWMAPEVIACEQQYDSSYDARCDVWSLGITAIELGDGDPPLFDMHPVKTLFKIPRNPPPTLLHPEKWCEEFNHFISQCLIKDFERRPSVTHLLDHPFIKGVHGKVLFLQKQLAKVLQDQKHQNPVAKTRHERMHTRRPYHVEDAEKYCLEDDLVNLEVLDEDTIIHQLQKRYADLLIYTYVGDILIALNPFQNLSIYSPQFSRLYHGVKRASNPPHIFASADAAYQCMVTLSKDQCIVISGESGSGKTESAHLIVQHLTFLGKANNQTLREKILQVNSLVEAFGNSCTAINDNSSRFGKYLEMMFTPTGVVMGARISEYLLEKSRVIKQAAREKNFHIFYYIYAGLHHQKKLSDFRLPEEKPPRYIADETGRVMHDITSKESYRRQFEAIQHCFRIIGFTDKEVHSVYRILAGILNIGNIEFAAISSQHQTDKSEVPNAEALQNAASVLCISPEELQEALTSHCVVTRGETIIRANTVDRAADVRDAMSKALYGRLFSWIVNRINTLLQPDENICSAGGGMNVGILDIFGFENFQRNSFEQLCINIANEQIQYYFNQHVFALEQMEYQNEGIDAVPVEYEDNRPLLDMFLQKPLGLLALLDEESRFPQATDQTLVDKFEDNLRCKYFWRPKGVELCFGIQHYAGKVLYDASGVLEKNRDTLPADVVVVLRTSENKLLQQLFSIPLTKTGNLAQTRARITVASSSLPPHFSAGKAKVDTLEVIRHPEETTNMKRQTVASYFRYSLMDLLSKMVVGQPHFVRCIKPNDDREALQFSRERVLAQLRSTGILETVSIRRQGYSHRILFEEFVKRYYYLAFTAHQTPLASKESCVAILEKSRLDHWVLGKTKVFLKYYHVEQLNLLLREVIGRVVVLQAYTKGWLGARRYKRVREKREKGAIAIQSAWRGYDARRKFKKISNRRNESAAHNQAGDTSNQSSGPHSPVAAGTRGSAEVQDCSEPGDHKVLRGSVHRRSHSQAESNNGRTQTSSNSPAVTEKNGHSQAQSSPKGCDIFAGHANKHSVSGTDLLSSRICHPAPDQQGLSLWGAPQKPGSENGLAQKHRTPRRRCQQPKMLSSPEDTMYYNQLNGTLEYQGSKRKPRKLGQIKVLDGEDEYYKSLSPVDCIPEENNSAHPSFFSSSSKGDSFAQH
# [2] = molecular target: Non-receptor tyrosine-protein kinase TYK2 (Homo sapiens, UniProt P29597); test: Selectivity interaction (KinomeScan (DiscoverX)) EUB0000655a TYK2; conditions: at 10 µM
# Non-receptor tyrosine-protein kinase TYK2, sequence (P29597 whole entry): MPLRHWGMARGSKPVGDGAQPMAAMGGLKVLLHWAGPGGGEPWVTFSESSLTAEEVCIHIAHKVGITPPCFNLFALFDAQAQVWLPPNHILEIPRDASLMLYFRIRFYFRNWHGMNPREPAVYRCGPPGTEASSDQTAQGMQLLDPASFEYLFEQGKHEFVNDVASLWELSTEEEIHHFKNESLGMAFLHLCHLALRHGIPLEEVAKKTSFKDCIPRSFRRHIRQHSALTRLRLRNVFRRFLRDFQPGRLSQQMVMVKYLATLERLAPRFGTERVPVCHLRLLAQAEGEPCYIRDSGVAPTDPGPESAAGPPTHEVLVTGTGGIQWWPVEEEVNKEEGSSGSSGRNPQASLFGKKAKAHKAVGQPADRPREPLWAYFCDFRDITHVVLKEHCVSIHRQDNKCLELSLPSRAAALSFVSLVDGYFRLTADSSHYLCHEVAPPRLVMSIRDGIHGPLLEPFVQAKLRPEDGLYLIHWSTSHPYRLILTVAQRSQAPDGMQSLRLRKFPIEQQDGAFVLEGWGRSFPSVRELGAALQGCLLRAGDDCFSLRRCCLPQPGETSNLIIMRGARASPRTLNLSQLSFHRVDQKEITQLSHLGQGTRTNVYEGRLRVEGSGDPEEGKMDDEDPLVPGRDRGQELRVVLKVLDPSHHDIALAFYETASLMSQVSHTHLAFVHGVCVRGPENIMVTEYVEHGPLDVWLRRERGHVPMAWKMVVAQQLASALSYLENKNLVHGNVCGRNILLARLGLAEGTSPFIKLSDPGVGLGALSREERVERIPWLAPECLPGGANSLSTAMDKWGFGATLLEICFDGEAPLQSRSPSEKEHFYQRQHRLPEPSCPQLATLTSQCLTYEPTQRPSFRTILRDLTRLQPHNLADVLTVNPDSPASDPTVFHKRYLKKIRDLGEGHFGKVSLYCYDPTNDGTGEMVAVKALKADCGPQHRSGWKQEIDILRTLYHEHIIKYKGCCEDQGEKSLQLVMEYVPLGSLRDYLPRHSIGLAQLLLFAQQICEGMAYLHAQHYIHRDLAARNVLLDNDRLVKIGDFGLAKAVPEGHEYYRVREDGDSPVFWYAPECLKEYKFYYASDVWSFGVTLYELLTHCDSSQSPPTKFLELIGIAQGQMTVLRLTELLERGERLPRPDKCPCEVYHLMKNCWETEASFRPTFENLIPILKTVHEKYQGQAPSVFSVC
# Histamine H1 receptor = Histamine H1 receptor (Homo sapiens, UniProt P35367); test: Selectivity interaction (GPCR panel (PDSP screen)) EUB0001079a HRH1; conditions: at 10 µM
# Histamine H1 receptor, sequence (P35367 whole entry): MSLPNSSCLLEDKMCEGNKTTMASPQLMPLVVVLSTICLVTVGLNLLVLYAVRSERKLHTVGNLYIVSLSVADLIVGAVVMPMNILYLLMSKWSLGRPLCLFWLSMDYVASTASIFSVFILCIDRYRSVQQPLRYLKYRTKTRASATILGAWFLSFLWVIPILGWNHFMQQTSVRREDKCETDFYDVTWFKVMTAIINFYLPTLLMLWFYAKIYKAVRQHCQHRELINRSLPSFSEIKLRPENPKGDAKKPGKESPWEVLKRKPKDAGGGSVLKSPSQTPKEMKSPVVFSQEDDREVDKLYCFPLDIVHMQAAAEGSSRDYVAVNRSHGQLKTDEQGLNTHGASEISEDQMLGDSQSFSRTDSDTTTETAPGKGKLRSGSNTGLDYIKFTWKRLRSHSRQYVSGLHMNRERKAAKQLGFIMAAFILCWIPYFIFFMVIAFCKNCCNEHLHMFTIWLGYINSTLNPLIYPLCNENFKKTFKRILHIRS
# [3] = molecular target: Serine/threonine-protein kinase 10 (Homo sapiens) (UniProt O94804); test: Selectivity interaction (KinomeScan (DiscoverX)) EUB0000607a STK10; conditions: at 10 µM
# Serine/threonine-protein kinase 10 (Homo sapiens), sequence (O94804 whole entry, looked up): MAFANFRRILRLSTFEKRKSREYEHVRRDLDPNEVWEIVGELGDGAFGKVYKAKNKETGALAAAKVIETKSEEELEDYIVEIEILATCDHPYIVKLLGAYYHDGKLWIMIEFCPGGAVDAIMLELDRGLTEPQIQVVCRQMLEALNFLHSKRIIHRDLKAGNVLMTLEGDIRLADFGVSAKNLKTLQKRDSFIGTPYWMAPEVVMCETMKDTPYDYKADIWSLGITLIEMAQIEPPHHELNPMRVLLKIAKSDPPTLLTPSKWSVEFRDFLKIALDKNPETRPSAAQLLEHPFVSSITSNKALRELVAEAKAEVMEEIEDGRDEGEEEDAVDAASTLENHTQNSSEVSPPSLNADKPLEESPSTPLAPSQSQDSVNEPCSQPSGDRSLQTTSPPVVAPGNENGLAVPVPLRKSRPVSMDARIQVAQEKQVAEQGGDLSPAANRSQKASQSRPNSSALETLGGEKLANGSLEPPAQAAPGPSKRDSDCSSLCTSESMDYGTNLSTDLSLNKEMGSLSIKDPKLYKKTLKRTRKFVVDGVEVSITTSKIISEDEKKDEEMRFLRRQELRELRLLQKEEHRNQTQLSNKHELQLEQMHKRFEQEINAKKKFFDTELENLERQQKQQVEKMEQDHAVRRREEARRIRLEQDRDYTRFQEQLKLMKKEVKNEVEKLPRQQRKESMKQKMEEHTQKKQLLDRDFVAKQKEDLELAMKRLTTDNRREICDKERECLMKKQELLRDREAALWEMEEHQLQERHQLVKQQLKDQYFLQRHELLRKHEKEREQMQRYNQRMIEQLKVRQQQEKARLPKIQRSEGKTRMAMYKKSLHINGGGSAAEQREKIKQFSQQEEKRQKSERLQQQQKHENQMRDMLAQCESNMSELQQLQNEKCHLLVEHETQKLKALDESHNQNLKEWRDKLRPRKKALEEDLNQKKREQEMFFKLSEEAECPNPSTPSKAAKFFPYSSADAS
# [4] = molecular target: T2, Interleukin-1 receptor-associated kinase 4 (Homo sapiens) (UniProt Q9NWZ3); test: Selectivity interaction (KinomeScan (DiscoverX)) EUB0001619a IRAK4; conditions: at 1 µM
# T2 sequence (whole entry): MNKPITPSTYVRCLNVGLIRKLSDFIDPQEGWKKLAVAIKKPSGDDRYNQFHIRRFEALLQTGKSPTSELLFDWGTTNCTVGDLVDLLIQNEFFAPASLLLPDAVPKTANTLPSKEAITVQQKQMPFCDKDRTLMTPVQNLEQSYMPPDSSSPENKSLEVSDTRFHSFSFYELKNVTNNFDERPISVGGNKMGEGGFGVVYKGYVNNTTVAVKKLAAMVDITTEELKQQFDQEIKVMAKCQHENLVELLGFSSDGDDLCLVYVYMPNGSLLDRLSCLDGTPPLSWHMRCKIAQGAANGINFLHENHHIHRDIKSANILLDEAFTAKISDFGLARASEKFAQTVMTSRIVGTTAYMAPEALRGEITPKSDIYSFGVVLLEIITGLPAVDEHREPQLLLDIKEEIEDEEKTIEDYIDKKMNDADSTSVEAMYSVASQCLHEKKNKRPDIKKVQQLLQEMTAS
# [5] = molecular target: Serine/threonine-protein kinase SIK1 (Homo sapiens) (UniProt P57059); test: Selectivity interaction (KinomeScan (DiscoverX)) EUB0000045b SIK1
# Serine/threonine-protein kinase SIK1 (Homo sapiens), sequence (P57059 whole entry): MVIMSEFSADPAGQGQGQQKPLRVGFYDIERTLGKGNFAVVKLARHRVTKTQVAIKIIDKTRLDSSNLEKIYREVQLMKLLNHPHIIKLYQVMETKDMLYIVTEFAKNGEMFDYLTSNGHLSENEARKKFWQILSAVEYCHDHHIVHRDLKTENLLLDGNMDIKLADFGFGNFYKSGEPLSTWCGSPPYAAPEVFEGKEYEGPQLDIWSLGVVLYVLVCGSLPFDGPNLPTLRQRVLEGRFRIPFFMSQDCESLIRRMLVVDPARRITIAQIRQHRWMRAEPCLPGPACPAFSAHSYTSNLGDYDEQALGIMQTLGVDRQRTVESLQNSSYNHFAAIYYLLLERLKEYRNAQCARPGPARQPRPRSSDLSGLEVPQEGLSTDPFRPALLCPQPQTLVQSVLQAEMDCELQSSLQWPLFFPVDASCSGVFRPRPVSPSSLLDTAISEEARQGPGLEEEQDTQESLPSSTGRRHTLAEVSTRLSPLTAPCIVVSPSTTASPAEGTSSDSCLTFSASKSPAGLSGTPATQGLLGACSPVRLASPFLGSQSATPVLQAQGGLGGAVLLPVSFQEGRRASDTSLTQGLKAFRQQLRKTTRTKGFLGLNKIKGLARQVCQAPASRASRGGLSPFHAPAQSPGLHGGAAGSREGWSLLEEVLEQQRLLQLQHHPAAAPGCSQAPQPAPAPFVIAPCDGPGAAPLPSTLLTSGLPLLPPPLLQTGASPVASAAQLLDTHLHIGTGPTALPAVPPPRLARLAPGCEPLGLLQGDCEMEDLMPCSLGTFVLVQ
# [6] = test system: Epidermal growth factor receptor (Homo sapiens), P00533 [UNDEFINED MUTATION]; conditions: at 10 µM
# Epidermal growth factor receptor (Homo sapiens), P00533 [UNDEFINED MUTATION], sequence (P00533 whole entry, looked up, change not shown): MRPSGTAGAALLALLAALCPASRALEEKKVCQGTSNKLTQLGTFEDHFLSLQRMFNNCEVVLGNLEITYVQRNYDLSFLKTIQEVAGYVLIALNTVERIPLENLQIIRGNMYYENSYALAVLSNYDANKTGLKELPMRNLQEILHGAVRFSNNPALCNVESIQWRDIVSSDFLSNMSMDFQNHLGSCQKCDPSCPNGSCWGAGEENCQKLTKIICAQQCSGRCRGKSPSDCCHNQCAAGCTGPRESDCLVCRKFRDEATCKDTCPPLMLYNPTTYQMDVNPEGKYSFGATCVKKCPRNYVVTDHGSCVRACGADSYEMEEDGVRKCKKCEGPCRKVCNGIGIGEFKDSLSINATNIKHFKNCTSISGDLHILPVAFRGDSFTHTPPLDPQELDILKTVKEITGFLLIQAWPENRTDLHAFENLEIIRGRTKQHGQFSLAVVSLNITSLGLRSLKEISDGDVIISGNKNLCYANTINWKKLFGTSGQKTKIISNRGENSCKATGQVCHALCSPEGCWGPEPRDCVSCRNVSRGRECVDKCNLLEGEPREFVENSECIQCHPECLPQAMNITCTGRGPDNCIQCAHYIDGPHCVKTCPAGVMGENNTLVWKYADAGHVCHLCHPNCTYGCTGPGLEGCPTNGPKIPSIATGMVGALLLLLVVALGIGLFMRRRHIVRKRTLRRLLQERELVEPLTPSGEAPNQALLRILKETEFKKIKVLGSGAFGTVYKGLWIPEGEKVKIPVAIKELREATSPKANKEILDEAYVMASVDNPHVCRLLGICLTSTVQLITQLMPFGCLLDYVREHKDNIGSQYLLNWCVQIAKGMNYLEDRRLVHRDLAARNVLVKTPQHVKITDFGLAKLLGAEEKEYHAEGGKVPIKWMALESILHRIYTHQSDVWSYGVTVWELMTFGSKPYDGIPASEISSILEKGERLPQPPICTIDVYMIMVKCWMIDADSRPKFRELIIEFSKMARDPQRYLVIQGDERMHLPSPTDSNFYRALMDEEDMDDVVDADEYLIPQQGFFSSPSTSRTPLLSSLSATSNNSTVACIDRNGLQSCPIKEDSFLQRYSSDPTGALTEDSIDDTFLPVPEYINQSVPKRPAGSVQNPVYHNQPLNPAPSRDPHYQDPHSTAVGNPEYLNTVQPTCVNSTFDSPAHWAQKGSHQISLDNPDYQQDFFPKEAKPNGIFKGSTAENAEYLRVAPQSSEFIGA
# [7] = molecular target: T3, Receptor-interacting serine/threonine-protein kinase 4 (Homo sapiens) (UniProt P57078); test: Selectivity interaction (KinomeScan (DiscoverX)) EUB0001049a RIPK4; conditions: at 1 µM
# T3 sequence (whole entry): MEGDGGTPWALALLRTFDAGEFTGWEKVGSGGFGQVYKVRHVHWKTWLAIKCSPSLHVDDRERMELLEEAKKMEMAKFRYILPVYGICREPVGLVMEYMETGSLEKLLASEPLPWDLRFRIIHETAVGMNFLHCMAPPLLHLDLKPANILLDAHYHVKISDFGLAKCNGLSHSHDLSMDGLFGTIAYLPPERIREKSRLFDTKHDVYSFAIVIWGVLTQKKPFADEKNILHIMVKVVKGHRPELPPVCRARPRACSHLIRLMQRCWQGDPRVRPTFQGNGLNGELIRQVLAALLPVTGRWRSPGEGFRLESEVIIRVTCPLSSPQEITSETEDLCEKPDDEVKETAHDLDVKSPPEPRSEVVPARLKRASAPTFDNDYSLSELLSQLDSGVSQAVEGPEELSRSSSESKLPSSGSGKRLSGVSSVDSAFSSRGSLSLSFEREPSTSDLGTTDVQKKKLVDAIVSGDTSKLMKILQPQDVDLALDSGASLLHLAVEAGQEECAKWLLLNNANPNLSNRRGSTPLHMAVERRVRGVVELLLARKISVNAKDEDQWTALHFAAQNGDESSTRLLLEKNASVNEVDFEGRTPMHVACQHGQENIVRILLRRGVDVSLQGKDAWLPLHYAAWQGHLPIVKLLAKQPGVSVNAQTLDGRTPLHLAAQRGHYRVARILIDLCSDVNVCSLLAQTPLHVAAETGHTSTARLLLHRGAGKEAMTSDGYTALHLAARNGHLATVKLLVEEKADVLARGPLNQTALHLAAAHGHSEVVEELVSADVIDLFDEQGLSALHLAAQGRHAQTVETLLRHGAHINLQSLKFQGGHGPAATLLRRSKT
smiles,measurement,setting,value
CN(C)C/C=C/C(=O)Nc1ccc(C(=O)N2CCCC(Nc3ncc(Cl)c(-c4c[nH]c5ccccc45)n3)C2)cc1 (centres undefined),% of control,[1],100%
CN(C)CCOc1ccc(-c2nc(-c3ccncc3)c(-c3ccc4c(c3)CC/C4=N\O)[nH]2)cc1,% of control,[2],100%
Nc1cnc(N2CCc3cc(S(=O)(=O)Nc4c(F)cc(Cl)cc4F)cc(N4CCCC4=O)c32)nc1 [TP-020n],% of inhibition,Histamine H1 receptor,8.19%
CNC(=O)Nc1ccc(-c2nc(N3CC4CCC(C3)O4)c3cnn(C4CCC5(CC4)OCCO5)c3n2)cc1,% of control,[3],99%
N#Cc1cccc(-c2c[nH]c3ncnc(N4CCOCC4)c23)c1,% of control,[4],69%
C=CC(=O)Nc1cc(-n2c(=O)ccc3cnc4ccc(-c5ccc(NS(C)(=O)=O)cc5)cc4c32)ccc1C,% of control,[5]; at 1 µM,100%
same,% of control,[5]; at 10 µM,69%
Cc1cc([C@@H](C)Nc2ccccc2C(=O)O)c2nc(N3CCOCC3)cc(=O)n2c1 [AZD-6482],% of control,[6],100%
COc1cc(Nc2nc(C)cc(-c3cnn4nc(OC)ccc34)n2)cc(C(F)(F)F)c1,% of control,[7],89%
